This is an account of results in article PMC11825904 (Nature Communications, 2025).

For one assay, the system named is rNsp5-L50F/E166A/L167F. The format is cell-based, SARS-CoV-2. As to conditions: read-out: rNsp5-L50F/E166A/L167F EC50.
The subject of a further assay is rNsp5-L50F/E166V. In kind it is cell-based, SARS-CoV-2. To be noted: read-out: rNsp5-L50F/E166V EC50.

As for `CC(C)(C)[C@H](NC(=O)C(F)(F)F)C(=O)N1C[C@H]2[C@@H]([C@H]1C(=O)N[C@H](C#N)C[C@@H]1CCNC1=O)C2(C)C` [Nirmatrelvir, nirmatrelvir], the values for the EC50 in the assay with rNsp5-L50F/E166A/L167F and in the assay on rNsp5-L50F/E166V were 0.63 µM and > 1 µM, respectively.
